Two molecules from paper PMC12365113 (IBRO Neuroscience Reports, 2025) can be followed below.

Marks after values point to notes of the source that are not given here.

One assay concerns the target BSA protein glycation (Bos taurus, UniProt P02769). The assay is described as follows: Anti-glycation assay. The class given is biochemical, Bovine. The settings on record: BSA + dextrose, 9 days at 37 °C, mean ± SD of triplicate.
Another assay concerns the target Aβ42 (Homo sapiens, UniProt P05067). The assay is described as follows: ThT assay of inhibition of Aβ aggregation. The class given is biochemical.

BSA protein glycation, sequence (P02769 25-607): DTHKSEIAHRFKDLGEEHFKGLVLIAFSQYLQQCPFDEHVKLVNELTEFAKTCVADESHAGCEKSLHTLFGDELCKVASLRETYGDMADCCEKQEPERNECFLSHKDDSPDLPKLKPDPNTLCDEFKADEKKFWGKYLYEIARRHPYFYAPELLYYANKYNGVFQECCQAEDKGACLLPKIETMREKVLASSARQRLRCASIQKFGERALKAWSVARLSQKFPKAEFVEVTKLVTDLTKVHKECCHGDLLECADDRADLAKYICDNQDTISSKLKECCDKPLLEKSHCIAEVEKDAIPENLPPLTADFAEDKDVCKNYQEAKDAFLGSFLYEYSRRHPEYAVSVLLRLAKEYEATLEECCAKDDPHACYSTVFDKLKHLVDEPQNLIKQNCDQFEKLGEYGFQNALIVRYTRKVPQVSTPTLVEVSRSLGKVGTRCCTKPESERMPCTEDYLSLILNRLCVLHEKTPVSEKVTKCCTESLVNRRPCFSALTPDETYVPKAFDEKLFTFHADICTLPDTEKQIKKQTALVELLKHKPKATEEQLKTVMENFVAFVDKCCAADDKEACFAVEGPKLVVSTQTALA
Aβ42, sequence (P05067 672-713): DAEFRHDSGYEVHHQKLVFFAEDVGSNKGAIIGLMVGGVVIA

As for `N=C(N)NN` [Aminoguanidine], the “Half-maximal inhibitory (IC50) values Protein glycation” value on BSA protein glycation is given as 15.27 ± 0.37^b μg/mL. Turning to `O=S1(=O)OC(c2ccc(O)cc2)(c2ccc(O)cc2)c2ccccc21` [Phenol Red], on Aβ42, half-maximal inhibition (IC50) required 94.7 µM.
